Each structure is given as a SMILES string.

Here are results for one compound from patent US7141661B2, “Non-steroidal anti-inflammatory drug activated gene with anti-tumorigenic properties” (The United States of America as represented by the …, priority 2000, dated 2006).

Test [1] deals with HCT-116 cells. The test is described as follows: Apoptosis and cell cycle by PI staining / FACS in HCT-116 cells. The class given is cell-based, human. Here is the method:
To determine whether NAG-1 gene expression is associated with NSAID-induced apoptosis or altered cell cycle kinetics, flow cytometric analysis of the distribution of cells at various stages of the cell cycle was performed. Apoptosis and cell cycle kinetics of INDO-treated HCT-116 cells were measured at different time points. HCT-116 cells were treated with INDO, stained with PI, and analyzed by flow cytometry. Seven thousand five hundred cells were examined by flow cytometry by gating on an area versus width dot plot to exclude cell debris and cell aggregates. Apoptosis is represented by the fold increase in sub-G1 population over 0 hr treatment.
The DNA content for NSAIDs, PPARγ ligand, and vehicle treated HCT-116 cells was determined by FACS. Cells were plated at a density of 4×10^5 cells/well in 2 ml of medium in 6 well plates, incubated for 16 h, and then treated with NSAIDs or TGZ in the presence of serum. After treatment, the cells were harvested, washed with PBS, fixed by the slow addition of cold 70% ethanol to a total of 1 ml, and stored overnight at 4° C. The fixed cells were pelleted, washed once with PBS, and stained in 1 ml of 20 μg/ml of propidium iodide (PI), 1 mg/ml RNase in PBS for 20 min. Seven thousand five hundred cells were examined by flow cytometry using Becton Dickinson FACSort equipped with CellQuest software, by gating on an area versus width dot plot to exclude cell debris and cell aggregates. Each cell cycle distribution was analyzed by the McCycle program using one cell cycle parameter. Apoptosis was measured based on the level of sub-diploid DNA contained in cells following treatment with NSAIDs or TGZ using CellQuest software.
Northern analysis was performed using NAG-1 and β-actin as probes. The data represent relative expression of NAG-1 mRNA over the control (1.0). Each NSAID was tested at 3 different concentrations and maximally effective concentration used for apoptosis determination. Apoptosis ratio by PI staining was measured by FACS. […] The data represent relative apoptosis ratio over vehicle treatment by PI staining methods. TACS™ Annexin V-FITC kit was also used to confirm apoptosis.

The subject of test [2] is NAG-1. Nature of the test: Western blot analysis of secreted NAG-1 protein from HCT-116 cells. The class given is cell-based, human. The settings on record: HCT-116, 100 μM INDO, 36 and 48 hr, no serum. As to the method:
The level of secreted NAG-1 was evaluated using Western blot analysis with anti-human-NAG-1 antibody (generously provided by Dr. Paralkar of Pfizer). HCT-116 cells were grown to 60–80% confluency in 10 cm plates followed by 48 hr treatment in the absence of serum with either NSAIDs or TGZ. The media were harvested and concentrated approximately 15-fold using Centriprep 10 concentrators (Amicon). Proteins (30 μg) were separated by 15% SDS-PAGE and transferred for 1 hr onto nitrocellulose membrane (Schleicher & Schuell). The blots were blocked for 1 hr with 5% skim milk in TBS/Tween 0.05%, and probed with anti-NAG-1 antibody (1 μg/ml in TBS-0.2%-Tween20) at […] overnight. After washing, the blots were treated with horseradish peroxidase-conjugated secondary antibody for 1 hr and washed several times. The signal was detected by enhanced chemiluminescence system (AMERSHAM) and autoradiography.
HCT-116 cells were treated with 100 μM INDO in the absence of serum for various times. In FIG. 1B, left panel. 10 μg of total RNA was loaded in each lane. Northern blotting was performed using the NAG-1 probe and re-probed with β-actin probe. The hybridization signals were quantitated using Scion Image software (Scion). Levels of the 1.3 kb NAG-1 transcript were normalized to the levels of β-actin transcripts and represented relative to 0 hr treatment. […] The signal was detected by ECL reagent (AMERSHAM).

As to `COc1ccc2c(c1)c(CC(=O)O)c(C)n2C(=O)c1ccc(Cl)cc1` [Indomethacin], the “Increase in apoptosis (sub-G1 population over 0 hr)” value in test [1] (HCT-116, 36 hr exposure) is approximately 3 fold; in test [1] (HCT-116, 60 hr exposure), 4.5 fold. Besides, the “Apoptosis (PI Staining), relative apoptosis ratio over vehicle” value in test [1] (HCT-116, 48 hr in presence of serum, maximally effective concentration, FACS) is recorded as 2.9 ± 0.121. Also, the “Earliest time at which apoptosis was observed” value in test [1] (HCT-116, presence of serum, TGZ 5 μM) was 36 h. Also, in test [1] (HCT-116, TGZ 5 μM), the “Time point at which G1 arrest was seen” value worked out at 12 h. In addition, the NAG-1 protein expression result in test [2] is on record as “marked increase”.
